ChEMBL document CHEMBL3045835, “Comparative study of conventional and microwave-assisted synthesis of some Schiff bases and their potential as antimicrobial agents” (2012)
≈ marks a conversion by molar mass, not a printed value.

Legend:
Type in all cases: functional
Pseudomonas fluorescens [1] = experiment: Antibacterial activity against Pseudomonas fluorescens MTCC 2421 at 200 ug/ml after 18 hr by cup-plate method; conditions: MTCC 2421, 18 h, read-out: DIZ
Escherichia coli [2] = experiment: Antibacterial activity against Escherichia coli MTCC 1573 at 1000 ug/ml after 18 hr by cup-plate method; conditions: MTCC 1573, 18 h, read-out: DIZ
Micrococcus luteus [3] = experiment: Antibacterial activity against Micrococcus luteus MTCC 1538 at 100 ug/ml after 18 hr by cup-plate method; conditions: MTCC 1538, 18 h, read-out: DIZ
Aspergillus niger [4] = experiment: Antifungal activity against Aspergillus niger MTCC 2546 after 24 hr by broth dilution method; conditions: MTCC 2546, 24 h
Aspergillus niger [5] = experiment: Antifungal activity against Aspergillus niger MTCC 2546 at 1500 ug/ml after 18 hr by cup-plate method; conditions: MTCC 2546, 18 h, read-out: DIZ
Penicillium chrysogenum [6] = experiment: Antifungal activity against Penicillium chrysogenum MTCC 161 at 1500 ug/ml after 18 hr by cup-plate method; conditions: MTCC 161, 18 h, read-out: DIZ
Aspergillus niger [7] = experiment: Antifungal activity against Aspergillus niger MTCC 2546 at 200 ug/ml after 18 hr by cup-plate method; conditions: MTCC 2546, 18 h, read-out: DIZ
Penicillium chrysogenum [8] = experiment: Antifungal activity against Penicillium chrysogenum MTCC 161 at 200 ug/ml after 18 hr by cup-plate method; conditions: MTCC 161, 18 h, read-out: DIZ
Bacillus subtilis [9] = experiment: Antibacterial activity against Bacillus subtilis MTCC 441 at 200 ug/ml after 18 hr by cup plate method; conditions: MTCC 441, 18 h, read-out: DIZ
Staphylococcus aureus [10] = experiment: Antibacterial activity against Staphylococcus aureus MTCC 1430 at 200 ug/ml after 18 hr by cup-plate method; conditions: MTCC 1430, 18 h, read-out: DIZ
Micrococcus luteus [11] = experiment: Antibacterial activity against Micrococcus luteus MTCC 1538 at 500 ug/ml after 18 hr by cup-plate method; conditions: MTCC 1538, 18 h, read-out: DIZ
Bacillus subtilis [12] = experiment: Antibacterial activity against Bacillus subtilis MTCC 441 at 100 ug/ml after 18 hr by cup plate method; conditions: MTCC 441, 18 h, read-out: DIZ
Staphylococcus aureus [13] = experiment: Antibacterial activity against Staphylococcus aureus MTCC 1430 at 1000 ug/ml after 18 hr by cup-plate method; conditions: MTCC 1430, 18 h, read-out: DIZ
Micrococcus luteus [14] = experiment: Antibacterial activity against Micrococcus luteus MTCC 1538 at 1000 ug/ml after 18 hr by cup-plate method; conditions: MTCC 1538, 18 h, read-out: DIZ
Bacillus pumilus [15] = experiment: Antibacterial activity against Bacillus pumilus MTCC 1456 after 24 hr by broth dilution method; conditions: MTCC 1456, 24 h
Escherichia coli [16] = experiment: Antibacterial activity against Escherichia coli MTCC 1573 at 200 ug/ml after 18 hr by cup-plate method; conditions: MTCC 1573, 18 h, read-out: DIZ
Pseudomonas aeruginosa = experiment: Antibacterial activity against Pseudomonas aeruginosa MTCC 424 at 1500 ug/ml after 18 hr by cup-plate method; conditions: MTCC 424, 18 h, read-out: DIZ
Bacillus subtilis [17] = experiment: Antibacterial activity against Bacillus subtilis MTCC 441 at 1500 ug/ml after 18 hr by cup plate method; conditions: MTCC 441, 18 h, read-out: DIZ
Penicillium chrysogenum [18] = experiment: Antifungal activity against Penicillium chrysogenum MTCC 161 after 24 hr by broth dilution method; conditions: MTCC 161, 24 h
Penicillium chrysogenum [19] = experiment: Antifungal activity against Penicillium chrysogenum MTCC 161 at 500 ug/ml after 18 hr by cup-plate method; conditions: MTCC 161, 18 h, read-out: DIZ
Bacillus subtilis [20] = experiment: Antibacterial activity against Bacillus subtilis MTCC 441 at 1000 ug/ml after 18 hr by cup plate method; conditions: MTCC 441, 18 h, read-out: DIZ
Escherichia coli [21] = experiment: Antibacterial activity against Escherichia coli MTCC 1573 at 1500 ug/ml after 18 hr by cup-plate method; conditions: MTCC 1573, 18 h, read-out: DIZ
Staphylococcus aureus [22] = experiment: Antibacterial activity against Staphylococcus aureus MTCC 1430 at 500 ug/ml after 18 hr by cup-plate method; conditions: MTCC 1430, 18 h, read-out: DIZ
Pseudomonas fluorescens [23] = experiment: Antibacterial activity against Pseudomonas fluorescens MTCC 2421 after 24 hr by broth dilution method; conditions: MTCC 2421, 24 h
Bacillus pumilus [24] = experiment: Antibacterial activity against Bacillus pumilus MTCC 1456 at 500 ug/ml after 18 hr by cup-plate method; conditions: MTCC 1456, 18 h, read-out: DIZ
Staphylococcus aureus [25] = experiment: Antibacterial activity against Staphylococcus aureus MTCC 1430 at 100 ug/ml after 18 hr by cup-plate method; conditions: MTCC 1430, 18 h, read-out: DIZ
Bacillus pumilus [26] = experiment: Antibacterial activity against Bacillus pumilus MTCC 1456 at 1000 ug/ml after 18 hr by cup-plate method; conditions: MTCC 1456, 18 h, read-out: DIZ

- MIC (Aspergillus niger [4]): 200 µg/mL (≈ 833 µM)
- MIC (Bacillus pumilus [15]): 400 µg/mL (≈ 1670 µM)
- MIC (Penicillium chrysogenum [18]): 200 µg/mL (≈ 833 µM)
- MIC (Pseudomonas fluorescens [23]): 200 µg/mL (≈ 833 µM)
Compound: O=c1c(/C=N/c2nc[nH]n2)coc2ccccc12
- zone of inhibition at 200 µg/mL (Pseudomonas fluorescens [1]): 15 mm
- zone of inhibition at 1000 µg/mL (Escherichia coli [2]): 16 mm
- zone of inhibition at 100 µg/mL (Micrococcus luteus [3]): 11 mm
- zone of inhibition at 1500 µg/mL (Aspergillus niger [5]): 22 mm
- zone of inhibition at 1500 µg/mL (Penicillium chrysogenum [6]): 22 mm
- zone of inhibition at 200 µg/mL (Aspergillus niger [7]): 18 mm
- zone of inhibition at 200 µg/mL (Penicillium chrysogenum [8]): 17 mm
- zone of inhibition at 200 µg/mL (Bacillus subtilis [9]): 16 mm
- zone of inhibition at 200 µg/mL (Staphylococcus aureus [10]): 13 mm
- zone of inhibition at 500 µg/mL (Micrococcus luteus [11]): 16 mm
- zone of inhibition at 100 µg/mL (Bacillus subtilis [12]): 12 mm
- zone of inhibition at 1000 µg/mL (Staphylococcus aureus [13]): 17 mm
- zone of inhibition at 1000 µg/mL (Micrococcus luteus [14]): 18 mm
- zone of inhibition at 200 µg/mL (Escherichia coli [16]): 14 mm
- zone of inhibition at 1500 µg/mL (Pseudomonas aeruginosa): 20 mm
- zone of inhibition at 1500 µg/mL (Bacillus subtilis [17]): 20 mm
- zone of inhibition at 500 µg/mL (Penicillium chrysogenum [19]): 19 mm
- zone of inhibition at 1000 µg/mL (Bacillus subtilis [20]): 18 mm
- zone of inhibition at 1500 µg/mL (Escherichia coli [21]): 18 mm
- zone of inhibition at 500 µg/mL (Staphylococcus aureus [22]): 14 mm
- zone of inhibition at 500 µg/mL (Bacillus pumilus [24]): 17 mm
- zone of inhibition at 100 µg/mL (Staphylococcus aureus [25]): 11 mm
- zone of inhibition at 1000 µg/mL (Bacillus pumilus [26]): 19 mm
